Among the data in patent US8461328B2, “Tricyclic heterocyclic compounds, compositions and methods of use thereof” (Genentech, Inc., priority 2010, dated 2013) are Ki values, retold here.

Each structure is given as a SMILES string.

Holding throughout (type): biochemical
For test [1], the target named is T1, JAK2 (Homo sapiens, UniProt O60674).
T1 construct: made in house; host or cells: SF9 insect cells (baculovirus)
As to the kind of experiment: JAK2 inhibition (Table 4). Conditions: read-out: JAK2 Ki.

The target in test [2] is T2, TYK2 (Homo sapiens, UniProt P29597).
T2 construct: made in house; host or cells: SF9 insect cells (baculovirus)
T2 sequence (P29597 873-1187): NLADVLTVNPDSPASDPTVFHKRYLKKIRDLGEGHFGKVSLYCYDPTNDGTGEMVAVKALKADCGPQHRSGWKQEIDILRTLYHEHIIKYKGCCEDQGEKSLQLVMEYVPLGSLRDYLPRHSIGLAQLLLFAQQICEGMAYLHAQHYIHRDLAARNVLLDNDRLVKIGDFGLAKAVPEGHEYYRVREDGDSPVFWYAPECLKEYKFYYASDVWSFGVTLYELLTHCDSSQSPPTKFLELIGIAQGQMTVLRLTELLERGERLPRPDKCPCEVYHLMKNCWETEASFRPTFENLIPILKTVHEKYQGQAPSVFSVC
As to the kind of experiment: TYK2 inhibition (Table 4).

The target of test [3] is T3, JAK3 (Homo sapiens, UniProt P52333).
T3 construct: made in house; host or cells: SF9 insect cells (baculovirus)
T3 sequence (P52333 783-1124): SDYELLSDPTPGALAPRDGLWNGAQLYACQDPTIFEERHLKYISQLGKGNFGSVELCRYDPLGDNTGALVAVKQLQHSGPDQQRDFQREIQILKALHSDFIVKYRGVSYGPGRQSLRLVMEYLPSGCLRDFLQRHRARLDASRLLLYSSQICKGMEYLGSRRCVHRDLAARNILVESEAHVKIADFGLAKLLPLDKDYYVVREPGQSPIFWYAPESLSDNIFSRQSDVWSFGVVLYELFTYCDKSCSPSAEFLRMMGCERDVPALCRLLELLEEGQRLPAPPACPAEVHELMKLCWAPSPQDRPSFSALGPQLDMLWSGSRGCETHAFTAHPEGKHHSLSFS
As to the kind of experiment: JAK3 inhibition (Table 4). Conditions: read-out: JAK3 Ki.

T1 sequence (O60674 812-1132): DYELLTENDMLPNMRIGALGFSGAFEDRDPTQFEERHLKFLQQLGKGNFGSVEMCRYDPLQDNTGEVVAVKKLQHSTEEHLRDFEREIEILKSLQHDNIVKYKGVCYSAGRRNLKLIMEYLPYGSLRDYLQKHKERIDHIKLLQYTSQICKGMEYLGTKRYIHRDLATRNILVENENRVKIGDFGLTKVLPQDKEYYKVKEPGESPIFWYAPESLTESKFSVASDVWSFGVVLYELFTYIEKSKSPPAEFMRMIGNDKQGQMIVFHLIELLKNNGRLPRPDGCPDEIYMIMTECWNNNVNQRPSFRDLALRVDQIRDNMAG

`CC(C)(C)OC(=O)NC1CCC(n2cnc3cnc4[nH]ccc4c32)C1` (racemic) [Example 137, Racemic trans [3-(6H-1,2,3,5,6-Tetraaza-as-indacen-1-yl)-cyclopentyl]-carbamic acid tert-butyl ester]: the Ki in test [1] was 9.51 nM; in test [2] it was 120 nM; in test [3], 37.1 nM.

`CC(C)(C)OC(=O)NC1CCC(n2cnc3cnc4[nH]ccc4c32)C1` (racemic) [Example 138, Racemic cis[3-(6H-1,2,3,5,6-Tetraaza-as-indacen-1-yl)-cyclopentyl]-carbamic acid tert-butyl ester]: the Ki in test [1] was found to be 27.7 nM; in test [2], 222 nM; in test [3] it was 143 nM.

In the case of `O=C(CC(F)(F)F)NC1CCC(n2nnc3cnc4[nH]ccc4c32)C1` (racemic) [Example 619, Racemic trans 3,3,3-trifluoro-N-[3-(6H-1,2,3,5,6-pentaaza-as-indacen-1-yl)-cyclopentyl]-propionamide], the Ki in test [1] was determined as 14.6 nM; in test [2], 118 nM; in test [3], 31.1 nM.

As for `COC(=O)NC1CCC(n2cnc3cnc4[nH]ccc4c32)C1` (racemic) [Example 734, [3-(6H-1,3,5,6-Tetraaza-as-indacen-1-yl)-cyclopentyl]-carbamic acid methyl ester], the Ki was determined as 8.06 nM in test [1], 28.5 nM in test [2] and 54.3 nM in test [3].

As for `CN1CCCCC1C(=O)N1CCC(n2cnc3cnc4[nH]ccc4c32)CC1` (single isomer, unassigned) [Example 196, (1-Methyl-piperidin-2-yl)-[4-(6H-1,2,3,5,6-tetraaza-as-indacen-1-yl)-piperidin-1-yl]-methanone], the results for the Ki in test [1], in test [2] and in test [3] were 94.6 nM, 295 nM and 1980 nM, respectively.

For `CN1CCCCC1C(=O)N1CCC(n2cnc3cnc4[nH]ccc4c32)CC1` (single isomer, unassigned) [Example 196a, (1-Methyl-piperidin-2-yl)-[4-(6H-1,2,3,5,6-tetraaza-as-indacen-1-yl)-piperidin-1-yl]-methanone], the Ki in test [1] was found to be 1340 nM.

For the compound `c1cc2c(ncc3ncn(C4CCNCC4)c32)[nH]1` [Example 28, 1-Piperidin-4-yl-1,6-dihydro-1,3,5,6-tetraaza-as-indacene], the values for the Ki in test [2] and in test [3] were 80.1 nM and 217 nM, respectively.

For the compound `N#CCC(=O)N1CCC(n2cnc3cnc4[nH]ccc4c32)CC1` [Example 33, 3-Oxo-3-[4-(6H-1,3,5,6-tetraaza-as-indacen-1-yl)-piperidin-1-yl]propionitrile], the values for the Ki in test [1], in test [2] and in test [3] were 35 nM, 143 nM and 162 nM, respectively.

As for `O=C(c1ccccc1)N1CCC(n2cnc3cnc4[nH]ccc4c32)CC1` [Example 35, Phenyl-[4-(6H-1,3,5,6-tetraaza-as-indacen-1-yl)-piperidin-1-yl]methanone], the Ki in test [1] stood at 26.1 nM; in test [2], 165 nM; in test [3], 692 nM.

Take `CN(C)CC(=O)N1CCC(n2cnc3cnc4[nH]ccc4c32)CC1` [Example 36, 2-Dimethylamino-1-[4-(6H-1,3,5,6-tetraaza-as-indacen-1-yl)-piperidin-1-yl]ethanone]: the Ki is 242 nM in test [1], 1190 nM in test [2] and 1620 nM in test [3].

As for `c1ncc(CN2CCC(n3cnc4cnc5[nH]ccc5c43)CC2)cn1` [Example 52, 1-(1-Pyrimidin-5-ylmethyl-piperidin-4-yl)-1,6-dihydro-1,3,5,6-tetraaza-as-indacene], the Ki in test [1] turned out to be 3.15 nM; in test [2], 56 nM; in test [3], 4.14 nM.

On to `CS(=O)(=O)N1CCC(n2cnc3cnc4[nH]ccc4c32)CC1` [Example 54, 1-(1-Methanesulfonyl-piperidin-4-yl)-1,6-dihydro-1,3,5,6-tetraaza-as-indacene], for which the inhibition constant (Ki) in test [1] is 2.99 nM; in test [2], 18.7 nM; in test [3], 84.1 nM.

Regarding `O=S(=O)(c1ccccc1)N1CCC(n2cnc3cnc4[nH]ccc4c32)CC1` [Example 55, 1-(1-Benzenesulfonyl-piperidin-4-yl)-1,6-dihydro-1,3,5,6-tetraaza-as-indacene], the Ki in test [1] is 6.59 nM; in test [2] it was 31 nM; in test [3] it was 334 nM.

As for `N#CCCN1CCC(n2cnc3cnc4[nH]ccc4c32)CC1` [Example 58, 3-[4-(6H-1,3,5,6-Tetraaza-as-indacen-1-yl)-piperidin-1-yl]propionitrile], the results for the inhibition constant (Ki) in test [1], in test [2] and in test [3] were 1 nM, 3.57 nM and 16.4 nM, respectively.

Take `CN1CCC[C@H]1C(=O)N1CCC(n2cnc3cnc4[nH]ccc4c32)CC1` [Example 78, ((S)-1-Methyl-pyrrolidin-2-yl)-[4-(6H-1,3,5,6-tetraaza-as-indacen-1-yl)-piperidin-1-yl]methanone]: the Ki was 137 nM in test [1], 436 nM in test [2] and 1120 nM in test [3].

Consider `CC(C)CC(=O)N1CCC(n2cnc3cnc4[nH]ccc4c32)CC1` [Example 83, 3-Methyl-1-[4-(6H-1,3.5,6-tetraaza-as-indacen-1-yl)-piperidin-1-yl]-butan-1-one], for which the Ki came out at 51 nM in test [1], 187 nM in test [2] and 1230 nM in test [3].

On to `N#Cc1ccnc(N2CCC(n3cnc4cnc5[nH]ccc5c43)CC2)c1` [Example 96, 4-(6H-1,3,5,6-Tetraaza-as-indacen-1-yl)-3,4,5,6-tetrahydro-2H-[1,2′]bipyridinyl-4′-carbonitrile], for which the results for the inhibition constant (Ki) in test [1], in test [2] and in test [3] were 19.7 nM, 90 nM and 115 nM, respectively.

With `CS(=O)(=O)N[C@H]1CC[C@H](n2cnc3cnc4[nH]ccc4c32)CC1` [Example 105, Trans N-[4-(6H-1,3,5,6-tetraaza-as-indacen-1-yl)-cyclohexyl]-methanesulfonamide], the Ki is 3.53 nM in test [1], 16.4 nM in test [2] and 23.1 nM in test [3].

On to `CC(C)(C)OC(=O)N[C@H]1CC[C@H](n2cnc3cnc4[nH]ccc4c32)CC1` [Example 107, Trans [4-(6H-1,3,5,6-tetraaza-as-indacen-1-yl)-cyclohexyl]-carbamic acid tert-butyl ester], for which the results for the Ki in test [1], in test [2] and in test [3] were 20 nM, 216 nM and 132 nM, respectively.

On to `N[C@H]1CC[C@H](n2cnc3cnc4[nH]ccc4c32)CC1` [Example 108, Trans 4-(6H-1,3,5,6-tetraaza-as-indacen-1-yl)-cyclohexylamine], for which the Ki was 24.6 nM in test [1], 75.2 nM in test [2] and 35 nM in test [3].

Regarding `CC(C)(C)OC(=O)N[C@@H]1CC[C@@H](n2cnc3cnc4[nH]ccc4c32)C1` [Example 134, [(1R,3R)-3-(6H-1,2,3,5,6-Tetraaza-as-indacen-1-yl)-cyclopentyl]-carbamic acid tert-butyl ester], the values for the Ki in test [1], in test [2] and in test [3] were 4.21 nM, 62.4 nM and 32.8 nM, respectively.

As to `CC(C)(C)OC(=O)N[C@@H]1CC[C@H](n2cnc3cnc4[nH]ccc4c32)C1` [Example 135, [(1R,3S)-3-(6H-1,2,3,5,6-Tetraaza-as-indacen-1-yl)-cyclopentyl]-carbamic acid tert-butyl ester], the results for the Ki in test [1], in test [2] and in test [3] were 20.3 nM, 161 nM and 90.6 nM, respectively.

As to `N[C@H]1CC[C@H](n2nnc3cnc4[nH]ccc4c32)CC1` [Example 279, 4-(6H-1,2,3,5,6-Pentaaza-as-indacen-1-yl)-cyclohexylamine], the Ki in test [3] is 239 nM.

Take `N#CCCN[C@H]1CC[C@H](n2nnc3cnc4[nH]ccc4c32)CC1` [Example 280, 3-[4-(6H-1,2,3,5,6-Pentaaza-as-indacen-1-yl)-cyclohexylamino]-propionitrile]: in test [3], the Ki amounted to 127 nM.

For the compound `C[C@@H](O)c1nc2cnc3[nH]ccc3c2n1[C@@H]1CCCN(CCC#N)C1` [Example 362, 3-{(R)-3-[2-((R)-1-Hydroxy-ethyl)-6H-1,3,5,6-tetraaza-as-indacen-1-yl]-piperidin-1-yl}-propionitrile], the Ki in test [3] came out at 461 nM.

For `O[C@H]1CC[C@H](n2nnc3cnc4[nH]ccc4c32)CC1` [Example 546, trans 4-(6H-1,2,3,5,6-Pentaaza-as-indacen-1-yl)-cyclohexanol], the Ki in test [3] was 140 nM.

As for `CO[C@H]1CC[C@H](n2c([C@@H](C)O)nc3cnc4[nH]ccc4c32)CC1` [Example 635, Trans (R)-1-[1-(4-methoxy-cyclohexyl)-1,6-dihydro-1,2,3,5,6-tetraaza-as-indacen-2-yl]-ethanol], the Ki in test [3] came out at 371 nM.

Take `C[C@@H](O)c1nc2cnc3[nH]ccc3c2n1[C@@H]1CCCN(CCC#N)C1` [Example 663, 3-{(R)-3-[2-((R)-1-Hydroxy-ethyl)-6H-1,2,3,5,6-tetraaza-as-indacen-1-yl]-piperidin-1-yl}-propionitrile]: the Ki in test [3] came out at 188 nM.

Take `CCC(O)c1nc2cnc3[nH]ccc3c2n1C1CCCCC1` (stereo not drawn) [Example 876, 1-(1-Cyclohexyl-1,6-dihydro-1,3,5,6-tetraaza-as-indacen-2-yl)-propan-1-ol]: the Ki in test [2] is 15.3 nM; in test [3] it was 35.7 nM.

As to `C[C@@H](O)c1nc2cnc3[nH]ccc3c2n1C1CCC(CCC#N)CC1` (stereo partly drawn) [Example 1007, 3-{4-[2-((R)-1-Hydroxy-ethyl)-6H-1,3,5,6-tetraaza-as-indacen-1-yl]-cyclohexyl}-propionitrile], the Ki in test [3] was 18.5 nM.
